Measurements: PubChem BioAssay (NCI)
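1) Cells in 96-well plates. 2) Compound, 48 h, 5 concentrations. 3) Linear interpolation between surrounding doses. 4) Unreached endpoint = highest concentration. GI50 is the concentration that inhibits growth by half. TGI: total growth inhibition.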

Experiments:
Test in all cases: NCI tumour cell line growth inhibition, 48 h
[1] = tested on: SK-OV-3 ovarian
[2] = tested on: CCRF-CEM leukemia
[3] = tested on: MCF7 breast
[4] = tested on: SK-MEL-28 melanoma
[5] = tested on: UACC-257 melanoma
[6] = tested on: U251 CNS
[7] = tested on: SK-MEL-2 melanoma
[8] = tested on: BT-549 breast
[9] = tested on: SF-539 CNS
[10] = tested on: SN12C renal
[11] = tested on: HOP-92 NSCLC
[12] = tested on: OVCAR-5 ovarian
[13] = tested on: CAKI-1 renal
[14] = tested on: OVCAR-8 ovarian
[15] = tested on: MOLT-4 leukemia
[16] = tested on: HS 578T breast
[17] = tested on: HT29 colon
[18] = tested on: HCC-2998 colon
[19] = tested on: RPMI-8226 leukemia
[20] = tested on: T-47D breast
[21] = tested on: KM12 colon
[22] = tested on: RXF 393 renal
[23] = tested on: SNB-75 CNS
[24] = tested on: OVCAR-3 ovarian
[25] = tested on: UO-31 renal
[26] = tested on: NCI-H522 lung
[27] = tested on: MALME-3M melanoma
[28] = tested on: A549 NSCLC
[29] = tested on: UACC-62 melanoma
[30] = tested on: OVCAR-4 ovarian
[31] = tested on: SNB-19 CNS
[32] = tested on: NCI-H460 lung
[33] = tested on: COLO 205 colon
[34] = tested on: SK-MEL-5 melanoma
[35] = tested on: TK-10 renal
[36] = tested on: NCI/ADR-RES ovarian
[37] = tested on: NCI-H23 lung
[38] = tested on: 786-0 renal
[39] = tested on: K-562 leukemia
[40] = tested on: M14 melanoma
[41] = tested on: HCT-15 colon
[42] = tested on: A498 renal
[43] = tested on: MDA-MB-435
[44] = tested on: MDA-MB-231 breast
[45] = tested on: HOP-62 NSCLC
[46] = tested on: SF-295 CNS
[47] = tested on: LOX IMVI melanoma
[48] = tested on: SR leukemia
[49] = tested on: DU-145 prostate
[50] = tested on: SW-620 colon
[51] = tested on: SF-268 CNS
[52] = tested on: PC-3 prostate
[53] = tested on: ACHN renal
[54] = tested on: NCI-H226 lung
[55] = tested on: IGROV1 ovarian
[56] = tested on: HCT-116 colon

## C[C@@H]1CC[C@H]2C(CN(C)CC3=C(C(F)(F)F)O[C@@H]4O[C@@]5(C)CC[C@H]6[C@H](C)CC[C@@H]3[C@@]46OO5)=C(C(F)(F)F)O[C@@H]3O[C@@]4(C)CC[C@@H]1[C@]32OO4
[1]
  GI50: > 100 µM
  TGI: > 100 µM
[2]
  GI50: 1310 nM
  TGI: > 42.9 µM
[3]
  GI50: 1560 nM
  TGI: > 100 µM
[4]
  GI50: > 32.8 µM
  TGI: > 100 µM
[5]
  GI50: 1900 nM
  TGI: > 51.1 µM
[6]
  GI50: 405 nM
  TGI: 22.6 µM
[7]
  GI50: > 37.1 µM
  TGI: > 80.7 µM
[8]
  GI50: 14.3 µM
  TGI: 54.4 µM
[9]
  GI50: 488 nM
  TGI: > 100 µM
[10]
  GI50: 7.47 µM
  TGI: > 100 µM
[11]
  GI50: 11.4 µM
  TGI: > 94.4 µM
[12]
  GI50: 935 nM
  TGI: > 100 µM
[13]
  GI50: 3.19 µM
  TGI: 18.2 µM
[14]
  GI50: 1580 nM
  TGI: > 53.6 µM
[15]
  GI50: > 25.4 µM
  TGI: > 100 µM
[16]
  GI50: 2250 nM
[17]
  GI50: 2760 nM
  TGI: > 100 µM
[18]
  GI50: 18.9 µM
  TGI: > 59.5 µM
[19]
  GI50: 820 nM
  TGI: > 49.6 µM
[20]
  GI50: 236 nM
  TGI: 39.7 µM
[21]
  GI50: 381 nM
  TGI: 20.1 µM
[22]
  GI50: 2830 nM
  TGI: > 100 µM
[23]
  TGI: > 23.9 µM
[24]
  GI50: 419 nM
  TGI: 12.1 µM
[25]
  GI50: 2860 nM
[26]
  GI50: 2670 nM
[27]
  GI50: 1060 nM
  TGI: > 83.9 µM
[28]
  GI50: 1580 nM
  TGI: > 45.4 µM
[29]
  GI50: 12.4 µM
  TGI: > 100 µM
[30]
  GI50: 1120 nM
  TGI: 56.6 µM
[31]
  GI50: 23.6 µM
  TGI: > 100 µM
[32]
  GI50: 1320 nM
  TGI: > 56.9 µM
[33]
  GI50: 728 nM
  TGI: > 100 µM
[34]
  GI50: 1860 nM
  TGI: 18.9 µM
[35]
  GI50: 4.93 µM
  TGI: > 54.2 µM
[36]
  GI50: 16.8 µM
  TGI: > 59.2 µM
[37]
  GI50: 818 nM
  TGI: 27 µM
[38]
  GI50: 4.03 µM
  TGI: 41.7 µM
[39]
  TGI: > 42.6 µM
[40]
  GI50: 2690 nM
  TGI: > 100 µM
[41]
  GI50: 506 nM
  TGI: > 100 µM
[42]
  GI50: 3.92 µM
  TGI: > 100 µM
[43]
  GI50: 549 nM
  TGI: 40.2 µM
[44]
  GI50: 5.9 µM
  TGI: > 93.1 µM
[45]
  GI50: 34.4 µM
  TGI: > 100 µM
[46]
  TGI: > 51.5 µM
[47]
  GI50: 715 nM
  TGI: 1980 nM
[48]
  GI50: 81.9 µM
  TGI: > 100 µM
[49]
  GI50: 2690 nM
  TGI: 16.8 µM
[50]
  GI50: 650 nM
  TGI: 53.3 µM
[51]
  GI50: 2820 nM
  TGI: > 95.7 µM
[52]
  GI50: 231 nM
  TGI: > 100 µM
[53]
  GI50: 1810 nM
  TGI: 14.9 µM
[54]
  GI50: 3.71 µM
  TGI: > 64.9 µM
[55]
  GI50: 2300 nM
  TGI: > 23.9 µM
[56]
  GI50: 415 nM
  TGI: 32.9 µM
